Test results as given in PubChem BioAssay AID1918958 (Molecular Pharmacology Branch, DTP, NCI, 2023).

Test system: NCI-H196 complex spheroid viability
Experiment: Anticancer human tumor NCI-H196 cell line growth inhibition [LSD1];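 also: spheroids exposed to agents for 7 days before readout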;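 as to viability, T/C: 100% = DMSO vehicle control viability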
Conditions: for IC50: curve of first compound; for viability, T/C: stronger effect = lower value
Method in brief: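 Drug combinations with the LSD1 inhibitor iadademstat tested on tumor cells co-cultured as spheroids with endothelial cells and mesenchymal stem cells. Concentrations descended in half-log increments from clinical Cmax or 10 microM.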

[1] = second compound 0.1 µM, first compound 0.00949 µM
[2] = second compound 0.1 µM, first compound 0.03 µM
[3] = second compound 0.1 µM, first compound 0.0949 µM
[4] = second compound 0.1 µM, first compound 0.3 µM
[5] = second compound 0.316 µM, first compound 0.00949 µM
[6] = second compound 0.316 µM, first compound 0.03 µM
[7] = second compound 0.316 µM, first compound 0.0949 µM
[8] = second compound 0.316 µM, first compound 0.3 µM
[9] = second compound 1 µM, first compound 0.00949 µM
[10] = second compound 1 µM, first compound 0.03 µM
[11] = second compound 1 µM, first compound 0.0949 µM
[12] = second compound 1 µM, first compound 0.3 µM
[13] = second compound 3.16 µM, first compound 0.00949 µM
[14] = second compound 3.16 µM, first compound 0.03 µM
[15] = second compound 3.16 µM, first compound 0.0949 µM
[16] = second compound 3.16 µM, first compound 0.3 µM
[17] = second compound 10 µM, first compound 0.00949 µM
[18] = second compound 10 µM, first compound 0.03 µM
[19] = second compound 10 µM, first compound 0.0949 µM
[20] = second compound 10 µM, first compound 0.3 µM
[21] = second compound 0.1 µM, first compound 0.000316 µM
[22] = second compound 0.1 µM, first compound 0.001 µM
[23] = second compound 0.1 µM, first compound 0.00316 µM
[24] = second compound 0.1 µM, first compound 0.01 µM
[25] = second compound 0.1 µM, first compound 0.0316 µM
[26] = second compound 0.1 µM, first compound 0.1 µM
[27] = second compound 0.316 µM, first compound 0.000316 µM
[28] = second compound 0.316 µM, first compound 0.001 µM
[29] = second compound 0.316 µM, first compound 0.00316 µM
[30] = second compound 0.316 µM, first compound 0.01 µM
[31] = second compound 0.316 µM, first compound 0.0316 µM
[32] = second compound 0.316 µM, first compound 0.1 µM
[33] = second compound 1 µM, first compound 0.000316 µM
[34] = second compound 1 µM, first compound 0.001 µM
[35] = second compound 1 µM, first compound 0.00316 µM
[36] = second compound 1 µM, first compound 0.01 µM
[37] = second compound 1 µM, first compound 0.0316 µM
[38] = second compound 1 µM, first compound 0.1 µM
[39] = second compound 3.16 µM, first compound 0.000316 µM
[40] = second compound 3.16 µM, first compound 0.001 µM
[41] = second compound 3.16 µM, first compound 0.00316 µM
[42] = second compound 3.16 µM, first compound 0.01 µM
[43] = second compound 3.16 µM, first compound 0.0316 µM
[44] = second compound 3.16 µM, first compound 0.1 µM
[45] = second compound 10 µM, first compound 0.000316 µM
[46] = second compound 10 µM, first compound 0.001 µM
[47] = second compound 10 µM, first compound 0.00316 µM
[48] = second compound 10 µM, first compound 0.01 µM
[49] = second compound 10 µM, first compound 0.0316 µM
[50] = second compound 10 µM, first compound 0.1 µM

CCN(c1cc(-c2ccc(CN3CCOCC3)cc2)cc(C(=O)NCc2c(C)cc(C)[nH]c2=O)c1C)C1CCOCC1 + NC1CCC(NC2CC2c2ccccc2)CC1
IC50 (second compound 0.1 µM): > 3000 nM
IC50 (second compound 0.316 µM): > 3000 nM
IC50 (second compound 1 µM): > 3000 nM
IC50 (second compound 3.16 µM): > 3000 nM
IC50 (second compound 10 µM): > 3000 nM
viability, T/C [1]: 100%
viability, T/C [2]: 95.6%
viability, T/C [3]: 93.1%
viability, T/C [4]: 103%
viability, T/C (second compound 0.1 µM, first compound 0.949 µM): 96.4%
viability, T/C (second compound 0.1 µM, first compound 3 µM): 101%
viability, T/C [5]: 99.5%
viability, T/C [6]: 93.8%
viability, T/C [7]: 101%
viability, T/C [8]: 100%
viability, T/C (second compound 0.316 µM, first compound 0.949 µM): 104%
viability, T/C (second compound 0.316 µM, first compound 3 µM): 110%
viability, T/C [9]: 92.5%
viability, T/C [10]: 93%
viability, T/C [11]: 98.7%
viability, T/C [12]: 95.2%
viability, T/C (second compound 1 µM, first compound 0.949 µM): 99.6%
viability, T/C (second compound 1 µM, first compound 3 µM): 103%
viability, T/C [13]: 87.8%
viability, T/C [14]: 91.4%
viability, T/C [15]: 95.3%
viability, T/C [16]: 95.6%
viability, T/C (second compound 3.16 µM, first compound 0.949 µM): 91.6%
viability, T/C (second compound 3.16 µM, first compound 3 µM): 99.9%
viability, T/C [17]: 104%
viability, T/C [18]: 93.3%
viability, T/C [19]: 94.6%
viability, T/C [20]: 105%
viability, T/C (second compound 10 µM, first compound 0.949 µM): 86.7%
viability, T/C (second compound 10 µM, first compound 3 µM): 101%

Nc1ncn(C2CC(O)C(CO)S2)c(=O)n1 (stereo not given) + NC1CC1c1ccc(-c2cccc(O)c2)cc1
IC50 (second compound 0.1 µM): > 300 nM
IC50 (second compound 0.316 µM): > 300 nM
IC50 (second compound 1 µM): > 300 nM
IC50 (second compound 3.16 µM): > 300 nM
IC50 (second compound 10 µM): > 300 nM
viability, T/C (second compound 0.1 µM, first compound 0.000949 µM): 98.2%
viability, T/C (second compound 0.1 µM, first compound 0.003 µM): 105%
viability, T/C [1]: 108%
viability, T/C [2]: 101%
viability, T/C [3]: 108%
viability, T/C [4]: 102%
viability, T/C (second compound 0.316 µM, first compound 0.000949 µM): 107%
viability, T/C (second compound 0.316 µM, first compound 0.003 µM): 111%
viability, T/C [5]: 112%
viability, T/C [6]: 113%
viability, T/C [7]: 112%
viability, T/C [8]: 113%
viability, T/C (second compound 1 µM, first compound 0.000949 µM): 103%
viability, T/C (second compound 1 µM, first compound 0.003 µM): 110%
viability, T/C [9]: 113%
viability, T/C [10]: 109%
viability, T/C [11]: 134%
viability, T/C [12]: 116%
viability, T/C (second compound 3.16 µM, first compound 0.000949 µM): 101%
viability, T/C (second compound 3.16 µM, first compound 0.003 µM): 102%
viability, T/C [13]: 106%
viability, T/C [14]: 99.3%
viability, T/C [15]: 117%
viability, T/C [16]: 119%
viability, T/C (second compound 10 µM, first compound 0.000949 µM): 101%
viability, T/C (second compound 10 µM, first compound 0.003 µM): 109%
viability, T/C [17]: 103%
viability, T/C [18]: 102%
viability, T/C [19]: 103%
viability, T/C [20]: 99.5%

CC(C)CC(NC(=O)C(Cc1ccccc1)NC(=O)c1cnccn1)B(O)O (stereo not given) + NC1CC1c1ccc(-c2cccc(O)c2)cc1
IC50 (second compound 0.1 µM): 0.36 nM
IC50 (second compound 0.316 µM): 0.373 nM
IC50 (second compound 1 µM): 0.392 nM
IC50 (second compound 3.16 µM): 0.375 nM
IC50 (second compound 10 µM): < 0.316 nM
viability, T/C [21]: 55.9%
viability, T/C [22]: 3.85%
viability, T/C [23]: 4.59%
viability, T/C [24]: 4.04%
viability, T/C [25]: 1.83%
viability, T/C [26]: 0.7%
viability, T/C [27]: 57.6%
viability, T/C [28]: 4.64%
viability, T/C [29]: 3.15%
viability, T/C [30]: 2.27%
viability, T/C [31]: 1.73%
viability, T/C [32]: 0.55%
viability, T/C [33]: 60.4%
viability, T/C [34]: 4.41%
viability, T/C [35]: 3.18%
viability, T/C [36]: 2.18%
viability, T/C [37]: 1.28%
viability, T/C [38]: 0.5%
viability, T/C [39]: 58.1%
viability, T/C [40]: 3.39%
viability, T/C [41]: 2.47%
viability, T/C [42]: 1.72%
viability, T/C [43]: 1.87%
viability, T/C [44]: 0.31%
viability, T/C [45]: 42.5%
viability, T/C [46]: 2.54%
viability, T/C [47]: 2.01%
viability, T/C [48]: 1.21%
viability, T/C [49]: 0.62%
viability, T/C [50]: 0.38%

CC(C)CC(NC(=O)CNC(=O)c1cc(Cl)ccc1Cl)B1OC(=O)CC(CC(=O)O)(C(=O)O)O1 (stereo not given) + NC1CC1c1ccc(-c2cccc(O)c2)cc1
IC50 (second compound 0.1 µM): 13.6 nM
IC50 (second compound 0.316 µM): 13.4 nM
IC50 (second compound 1 µM): 10.1 nM
IC50 (second compound 3.16 µM): 10.5 nM
IC50 (second compound 10 µM): 10.2 nM
viability, T/C [21]: 99.7%
viability, T/C [22]: 100%
viability, T/C [23]: 97.6%
viability, T/C [24]: 58.7%
viability, T/C [25]: 21.7%
viability, T/C [26]: 4.21%
viability, T/C [27]: 92.7%
viability, T/C [28]: 99.2%
viability, T/C [29]: 92.8%
viability, T/C [30]: 59.9%
viability, T/C [31]: 19%
viability, T/C [32]: 4.26%
viability, T/C [33]: 97.5%
viability, T/C [34]: 106%
viability, T/C [35]: 93.3%
viability, T/C [36]: 48.8%
viability, T/C [37]: 17%
viability, T/C [38]: 4.69%
viability, T/C [39]: 91%
viability, T/C [40]: 109%
viability, T/C [41]: 89.2%
viability, T/C [42]: 49.3%
viability, T/C [43]: 19.2%
viability, T/C [44]: 3.44%
viability, T/C [45]: 105%
viability, T/C [46]: 98.8%
viability, T/C [47]: 84.2%
viability, T/C [48]: 52.9%
viability, T/C [49]: 13.4%
viability, T/C [50]: 2.91%
